The values below are quoted from earlier work in paper PMC5572761 (Journal of medicinal chemistry, 2017).

In the data set the test system is α3β4 nAChR. The conditions noted are these: read-out: IC50 [nM] α3β4; cited from earlier work.

Take α-conotoxin AuIB [Peptide 17]: the IC50 was 750 nM.
